From BindingDB's records for doi:10.7270/Q25719HD (The Scripps Research Institute Molecular Screening Center, 2010) come the findings set out here.

The assay has as its target T1, Cytochrome b-245 heavy chain (Homo sapiens, UniProt P04839).
T1 sequence (P04839 whole entry): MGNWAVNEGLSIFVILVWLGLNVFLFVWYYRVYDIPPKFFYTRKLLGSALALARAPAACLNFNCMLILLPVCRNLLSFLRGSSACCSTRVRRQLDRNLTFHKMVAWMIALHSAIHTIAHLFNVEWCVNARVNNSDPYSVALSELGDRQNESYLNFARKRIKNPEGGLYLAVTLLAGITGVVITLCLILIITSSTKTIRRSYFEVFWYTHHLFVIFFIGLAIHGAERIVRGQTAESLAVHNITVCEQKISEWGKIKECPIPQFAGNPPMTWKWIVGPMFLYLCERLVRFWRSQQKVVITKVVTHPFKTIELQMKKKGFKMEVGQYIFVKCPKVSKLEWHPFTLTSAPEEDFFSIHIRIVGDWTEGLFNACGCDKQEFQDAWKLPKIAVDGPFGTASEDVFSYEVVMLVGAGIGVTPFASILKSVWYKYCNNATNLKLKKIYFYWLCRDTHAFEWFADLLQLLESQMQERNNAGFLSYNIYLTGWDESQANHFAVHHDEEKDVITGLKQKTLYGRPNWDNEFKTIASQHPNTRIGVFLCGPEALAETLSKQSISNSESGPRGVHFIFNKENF
In words: PubChem AID 435013.

Consider `CN(C)c1ccc(CN=Nc2c(Cl)cncc2Cl)cc1`, for which the IC50 (in general, the concentration at which inhibition is half-maximal) is more than 10 µM.

As to `Oc1c(Br)cc(CN=Nc2c(Cl)cncc2Cl)cc1Br` [4-[[2-[3,5-bis(chloranyl)pyridin-4-yl]hydrazinyl]methylidene]-2,6-bis(bromanyl)cyclohexa-2,5-dien-1-one], the IC50 is more than 50 µM.
